{"source": "paper PMC5354587", "about": "“Ergosterone-coupled Triazol molecules trigger mitochondrial dysfunction, oxidative stress, and acidocalcisomal Ca^2+ release in Leishmania mexicana promastigotes” (Microbial Cell, 2015)", "type_in_all_cases": "cell-based", "key": {"[1]": {"system": "Leishmania mexicana promastigotes", "assay": "Annexin V-AlexaFluor488/propidium iodide double staining, flow cytometry", "details": "Erg-GTr 1.4 μM or Erg-GTr2 2.3 μM", "method": "The effect of Erg-GTr and Erg-GTr2 was further analyzed to determine the cell death mechanism. Asymmetry of the plasma membrane is loosed when cell death processes are activated. The Annexin V-AlexaFluor488/propidium iodide double staining was used to detect phosphatidylserine (PS) in the outer leaflet of the plasma membrane using flow cytometry after parasite treatment. Cells were incubated for 24 and 48 hours with Erg-GTr (1.4 μM) or Erg-GTr2 (2.3 μM). […] At this time, the integrity of the plasma membrane was still intact, as evidenced by a low PI staining (5% or lower). After 48 hours, the percentage of Annexin V positive cells increased to reach more than 60% (Erg-GTr) or was maintained at around 40% in the case of Erg-GTr2 (Figure 2B). […] This phenomenon has been reported as a criterium of the late stage of cell death processes.\nThe annexin V-AlexaFluor 488 (Invitrogen) was used following the manufacture recommendations. Briefly, 1 x 10^6 parasites were washed with PBS and incubated with annexin V and propidium iodide (0.05 mg x mL^-1) in 100 μL binding buffer for 15 minutes. Final volume was adjusted at 500 μL and samples were immediately analyzed in a Beckman Coulter Gallios Cytometer."}, "[2]": {"system": "Leishmania mexicana promastigotes", "assay": "Mitochondrial membrane potential immediately after addition, rhodamine 123", "details": "Erg-GTr 1.4 μM or Erg-GTr2 2.3 μM", "method": "As the Leishmania mitochondrion seems to be involved in [Ca^2+]cyt regulation and can also accumulate Ca^2+ [9], the effect of Erg-GTr and Erg-GTr2 was analyzed immediately after its addition to parasites preloaded with rhodamine 123.\nMitotracker CMX Red(Invitrogen) was used to determine the mitochondrial membrane potential (Ψmit) of treated parasites. After 6, 16, 24, and 48 hours treatment, cells were incubated in culture medium with 50 nM Mitotracker CMX Red for 30 minutes at 26°C in the dark. Thereafter, parasites were washed twice with PBS, resuspended in 1 mL buffer, and analyzed using a cytometer (Beckman Coulter). Parasites incubated with valinomycin (500 nM for 30 minutes) were used as positive control. To evaluate the effect of ergosterone coupled molecules on the mitochondrial membrane potential immediately after molecule addition we used the fluorophore rhodamine-123, a mitochondrion-specific cationic dye, which distributes across the inner mitochondrial membranes strictly according to their membrane potential, as described before. Briefly, 1 x 10^7 parasites were washed twice with rhodamine 123 loading buffer (20 mM Tris-HCl, 130 mM KCl, 1 mM MgCl2, and 2 mM KH2PO4) and incubated with 20 μM rhodamine 123 for 45 minutes at 29°C under agitation. […] Fluorescence (ex 488 nm and em 530 nm) was registered in a Hitachi F-7000 Spectrofluorimeter. […]"}, "[3]": {"system": "Leishmania mexicana promastigotes", "assay": "Transmission electron microscopy of treated parasites", "details": "48 hours, TEM", "method": "To analyze if changes observed after parasite treatment with Erg-GTr or Erg-GTr2 can be associated with morphological alterations, cells were prepared for transmission electron microscopy as described in materials and methods section.\nFigure 5 FIGURE 5: Transmission electron microscopy (TEM) of Epon-embedded cells. Parasites were treated with 1.4 μM Erg-GTr, 2.3 μM Erg-GTr2 or DMSO (control cells), harvested after 48 hours and prepared for TEM. (A) The most obvious alterations in Erg-GTr-treated cells are as follows: increase of vacuolar structures containing cytoplasmic material (c, d, f, h), myelin-like structures (d, h), increase of lysosomes (d, e, g), and flagellar pocket containing some material (g). Note the usual appearance of mitochondria, nucleus and cytoplasmic content in control cells (a, b). Abbreviations used: lysosome (L); nucleus (N); flagellar pocket (FP); mitochondrion (M). Arrows and asterisk indicate autophagosomes and myelin-like structures, respectively. (B) Mitochondrion zoom in to show cristae. […] Bars represent 0.5 μ each.\nFor TEM, 10^8 parasites were fixed in 2% (vol/vol) glutaraldehyde in 0.2 M sodium cacodylate buffer containing 0.12 M sucrose for 1 h at 4°C. Thereafter samples were washed four times (10 min each) and stored overnight in sodium cacodylate buffer. Before dehydration in ethanol, cells were postfixed in osmium tetroxide (1.5%, wt/vol) and stained in 0.5% uranyl acetate. Samples were cleared in propylene oxide and embedded in Agar 100 as described by. Sections were stained in 5% (wt/vol) uranyl acetate and 0.4% (wt/vol) lead citrate."}}}
{"compound": "CC(C)C(C)C=CC(C)C1CCC2C3=CC(=NNC(=O)n4cnnc4)C4(O)CC(=O)CCC4(C)C3CCC21C", "note": "(centres unmarked) [Erg-GTr, [1,2,4]triazole-4-carboxylic acid [5-hydroxy-10,13-dimethyl-3-oxo-17-(1,4,5-trimethyl-hex-2-enyl)-1,2,3,4,5,9,10,11,12,13,14,15,16,17-tetradecahydro-cyclopenta[a]phenanthren-6-ylidene]-hydrazide]", "values": [{"measurement": "PI staining", "setting": "[1]; 24 hours", "result": "≤ 5", "unit": "%"}, {"measurement": "PS exposure, percentage of the cell population", "setting": "[1]; 24 hours", "result": 40.2, "unit": "%"}, {"measurement": "PI positive cells", "setting": "[1]; 48 hours", "result": 31, "unit": "%"}, {"measurement": "percentage of Annexin V positive cells", "setting": "[1]; 48 hours", "result": "more than 60%"}, {"measurement": "rhodamine 123 fluorescence (depolarization of mitochondrial membrane potential)", "setting": "[2]", "result": "slow fluorescence increase"}, {"measurement": "autophagy (ultrastructural changes)", "setting": "[3]", "result": "Induction of autophagy"}, {"measurement": "treated parasites showing increase in cristae number and size", "setting": "[3]", "result": "More than 50%"}, {"measurement": "number and size of mitochondrion cristae", "setting": "[3]; compared with control", "result": "higher"}]}
